Reference: US7550497B2, “Phosphoramide derivatives” (Palau Pharma, S.A., priority 2002, dated 2009)

How the values were obtained:
[1] = system: carrageenan-induced paw edema; assay: Rat carrageenan-induced paw edema assay; assay type: in vivo; conditions: male Sprague Dawley rats, 3 mg/kg i.v., 10 min before carrageenan, paw volume 1-4 h
Protocol: Test 1.—Rat Carrageenan-Induced Paw Edema Assay
Male Sprague Dawley rats (150-175 g) are used. The animals are fasted during 18 hours prior to the experiment and kept with water ad libitum, and are randomly distributed into the different groups of treatment. Inflammation is induced by injecting 0.1 mL of 1% λ-carrageenan solution (Sigma) to the animals' right hindpaw, and the inflammatory response (increase in paw volume) is measured with a plethysmometer (UGO BASILE). Paw volumes are measured just before the administration of test compounds and at 1, 2, 3 and 4 hours after the injection of carrageenan. The compounds are administered through the tail vein, dissolved in DMSO and saline (1 mL/Kg), 10 minutes before the injection of carrageenan. At the same time, 5 mL of water are administered by the oral route in order to facilitate hydration and subsequent inflammatory reaction. The percentages of inhibition of the different treatments tested are calculated by comparing the area under the curve obtained for the treated animals versus the one obtained for the control group. Said areas are obtained by integration from a graphical representation of paw volume versus time.
The results obtained with representative compounds of the present invention are shown in the following table, where the % of inhibition of inflammation at a dose of 3 mg/kg i.v. of test compound are reported.

[2] = system: carrageenan-induced hyperalgesia; assay: Rat carrageenan-induced hyperalgesia test; assay type: in vivo; conditions: male Sprague Dawley rats, 3 mg/Kg intravenous, especially at 120 min after administration
Protocol: Test 3.—Rat Carrageenan-Induced Hyperalgesia Test
Male Sprague Dawley rats, randomly distributed into the different groups of treatment, are used. Inflammation is induced by injection of a carrageenan suspension (0.75 mg per paw in 0.05 mL of saline) into the animals' right hind foot pad. One hour 45 min later the test compounds are administered by intravenous route. Two hours after carrageenan injection, hyperalgesia is induced at different times in both hindpaws by using a heat source. At each time, the time of latency till the withdrawal of the paw from the heat source is determined for the control group (vehicle) and the treatment groups, and the result is expressed as the increase of the latency time of the inflammed paw of the treated group versus the control group.

Molecule	% inhibition of inflammation (paw volume AUC vs control) [1]	analgesic activity (increase of latency time of the inflamed paw vs control) [2]
Diethyl N-[4-[4-chloro-5-(3-fluoro methoxyphenyl)imidazol-1-yl]phenylsulfonyl]phosphoramidate [Example 1]	20.7%	
COc1ccc(-c2c(Cl)ncn2-c2ccc(S(=O)(=O)NP(=O)(O)O)cc2)cc1F [Example 6, N-[4-[4-Chloro-5-(3-fluoro-4-methoxyphenyl)imidazol-1-yl]phenylsulfonyl]phosphoramidic Acid]	34.8%	significant analgesic activity
CCOP(=O)([O-])NS(=O)(=O)c1ccc(-n2cnc(Cl)c2-c2ccc(OC)c(F)c2)cc1.[Na+] [Example 4, Ethyl N-[4-[4-chloro-5-(3-fluoro-4-methoxyphenyl)imidazol-1-*yl]phenylsulfonyl]phosphoramidate Sodium Salt]	23.3%	
